Laboratory results as given in patent publication US20250179024A1, “AMYLOID AND ASSOCIATED PATHOLOGY MODULATORS AND METHODS THEREOF” (Jawaharlal Nehru Centre for Advanced Scientific Research, priority 2022, published 2025).

What was measured:
Aβ = target: T1, Aβ (Homo sapiens, UniProt P05067); assay: AFM imaging of Aβ samples; conditions: for morphology of Aβ sample, aggregation inhibition: Aβ 10 μM, FIG. 1C
T1 construct: is a 42 amino acid proteolytic product from the amyloid precursor protein; purchased Invitrogen
Method: AFM imaging was done to understand the morphological characteristics of Aβ and NMI treated samples. The samples from Aβ aggregation inhibition and dissolution studies were used for AFM imaging. 25 μL of sample was drop-casted on freshly cleaved mica substrate. The Aβ samples were allowed to adhere to substrate surface for 15 min, washed with filtered MiliQ water and air dried. The samples were imaged in Scan assist Air mode in Bioscope resolve AFM system (Bruker). The images were processed and analyzed using NanoScope analysis software. […] It has been observed that the oligomers are a highly toxic species compared to Aβ fibrillar aggregates. The ability of NMIs (M3) to inhibit the formation of Aβ oligomers was assessed by dot blot assay. Aβ peptide (10 μM) was incubated with NMIs at 4° C. for 24 h followed by probing with A11 oligomer-specific antibody. […] Native PAGE and western blot analysis was carried out to understand the size distribution of Aβ aggregated species. […] In order to analyse the higher order aggregates not permeable in the gel matrix and the morphological characteristics, Aβ samples were subjected to atomic force microscopy (AFM) imaging.

Aβ42 = target: T2, Aβ42 (Homo sapiens, UniProt P05067); assay: Native PAGE and western blot of Aβ aggregated species; type: biochemical; conditions: NMIs 20 μM; for size distribution of Aβ aggregated species, aggregation inhibition: Aβ 10 μM, FIGS. 1B and 2B; for LMW and HMW Aβ aggregates, dissolution samples: Aβ aggregates 10 μM, FIG. 4B
T2 construct: is a 42 amino acid proteolytic product from the amyloid precursor protein; purchased Invitrogen
Method: The samples were prepared by incubating Aβ42 with specific concentration of NMI compounds of present disclosure and metal ions for 48 h and then subjected to 6% native polyacrylamide gel electrophoresis (Native-PAGE) in tris-glycine buffer. The lower molecular weight aggregates permeabilized through the gel and resolved in the gel. Higher molecular aggregates stuck in the upper part of wells and potentially carried in gel. Then the protein was transferred to PVDF membrane for 4 h at cold condition maintained using ice cold transfer buffer and immersing the transfer apparatus in ice. Then the blots were continued similar to dot blots. […] It has been observed that the oligomers are a highly toxic species compared to Aβ fibrillar aggregates. The ability of NMIs (M3) to inhibit the formation of Aβ oligomers was assessed by dot blot assay. Aβ peptide (10 μM) was incubated with NMIs at 4° C. for 24 h followed by probing with A11 oligomer-specific antibody. […] Native PAGE and western blot analysis was carried out to understand the size distribution of Aβ aggregated species. […] In order to analyse the higher order aggregates not permeable in the gel matrix and the morphological characteristics, Aβ samples were subjected to atomic force microscopy (AFM) imaging.

Aβ fibrils = target: T3, Aβ fibrils (Homo sapiens, UniProt P05067); assay: Dot blot assay of Aβ fibrillar aggregation inhibition (OC antibody); type: biochemical; conditions: Aβ 10 μM; for inhibition of the formation of Aβ fibrils: NMIs 20 μM, PBS pH 7.4, 37° C., 48 h
T3 construct: is a 42 amino acid proteolytic product from the amyloid precursor protein; purchased Invitrogen
Method: Aggregation modulation by toxic Aβ aggregates were assessed and were quantified by dot blot assay. Aβ peptide (10 μM) was dissolved in phosphate buffered saline (PBS, 10 mM, pH 7.4), incubated alone and with NMIs (20 μM) at 37° C. for 48 h. For concentration dependent inhibition, 10 μM Aβ peptide was incubated with 1, 2, 5, 10 and 20 μM of NMIs and incubated. Samples for oligomer inhibition studies were prepared by incubating Aβ alone and with NMIs at 4° C. for 24 and subjected to dot blot analysis. For dissolution studies, Aβ peptide alone was incubated in PBS for 48 h to prepare fibrils and then incubated with NMIs further for 48 h. For dot blot experiment, 5 μL of sample was blotted on activated PVDF (polyvinylidene fluoride) membrane in triplicates and air dried. The membrane was blocked with skimmed milk powder for 1 h at room temperature. The blot paper was washed with tris-buffered saline with 0.01% Tween 20 (TBST) three times for 5 min. Blot paper was treated with fibril specific OC primary antibody (Rabbit, 1:1000 dilution) overnight at 4° C. For oligomers blot A11 anti-oligomer antibody (Rabbit 1:1000) was used. Blot was washed thrice with TBST and treated with HRP-conjugated antirabbit secondary antibody (1:5000 dilutions) for 1 h at room temperature. The bolt was washed thrice for 5 min with TBST and developed with ECL reagent (Biorad) and imaged with ChemiDoc BioRad gel documentation system in autoexposure mode. Blots were analyzed and quantified by ImageJ software. The ability of the NMIs, the compounds of the present disclosure M1-M4 to inhibit Aβ aggregation and dissolve the preformed fibrillar aggregates was evaluated by dot blot assay as explained in Example 2 above. Aβ (10 μM) was incubated alone and with NMIs (20 μM) in phosphate buffer saline (PBS, 10 mM and pH 7.4) at 37° C. for 48 h to form Aβ fibrillar aggregates. The samples were blotted and probed with fibril-selective OC antibody (rabbit anti-human amyloid fibrils). […] M3 was further assessed for inhibitory effect at lower concentrations. […] It has been observed that the oligomers are a highly toxic species compared to Aβ fibrillar aggregates. The ability of NMIs (M3) to inhibit the formation of Aβ oligomers was assessed by dot blot assay. Aβ peptide (10 μM) was incubated with NMIs at 4° C. for 24 h followed by probing with A11 oligomer-specific antibody. […] Native PAGE and western blot analysis was carried out to understand the size distribution of Aβ aggregated species. […] In order to analyse the higher order aggregates not permeable in the gel matrix and the morphological characteristics, Aβ samples were subjected to atomic force microscopy (AFM) imaging.

[1] = target: T4, Aβ in the presence of Cu (II) (Homo sapiens, UniProt P05067); assay: Cu-dependent Aβ aggregation, native PAGE and western blot; type: biochemical; conditions: Aβ 10 μM, Cu (II) 20 μM, NMIs 20 μM, 37° C., 48 h
T4 construct: is a 42 amino acid proteolytic product from the amyloid precursor protein; purchased Invitrogen
Method: The samples were prepared by incubating Aβ42 with specific concentration of NMI compounds of present disclosure and metal ions for 48 h and then subjected to 6% native polyacrylamide gel electrophoresis (Native-PAGE) in tris-glycine buffer. The lower molecular weight aggregates permeabilized through the gel and resolved in the gel. Higher molecular aggregates stuck in the upper part of wells and potentially carried in gel. Then the protein was transferred to PVDF membrane for 4 h at cold condition maintained using ice cold transfer buffer and immersing the transfer apparatus in ice. Then the blots were continued similar to dot blots.
The absorbance and fluorescence spectroscopy studies together with mass spectrometry data confirmed the selective Cu (II) or Zn (II) chelation property of M1 and M3. […] Aβ (10 μM) was incubated in the presence of Cu (II) or Zn (II) (20 μM) with NMIs at 37° C. for 48 h and the samples were subjected to native PAGE and western blot analysis. […] Modulation of Zn-dependent Aβ aggregation by M4 was attributed to its two Zn (II) chelation centres. M3 with dopamine and DPA moieties effectively modulated both Cu (II) and Zn (II)-dependent Aβ aggregation. The effect of NMIs on the morphological outcome of metal-dependent Aβ aggregation was visualized by AFM imaging (FIGS. 1E and 1F). Aβ in the presence of Cu (II) and Zn (II) formed dense and thick fibrils.

T2 sequence (P05067 672-713 limits assumed): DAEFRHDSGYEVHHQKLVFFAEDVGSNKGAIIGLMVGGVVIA
T3 sequence (P05067 672-713 limits assumed): as above
T1 sequence (P05067 672-713 limits assumed): as above
T4 sequence (P05067 672-713 limits assumed): as above

SMILES	morphology of metal-dependent Aβ aggregation (Aβ; Aβ 10 μM with Cu (II) or Zn (II), NMIs 20 μM, FIGS. 1E and 1F)	morphology of Aβ sample, aggregation inhibition (Aβ; NMIs 20 μM)	morphology of preformed fibrils after treatment (Aβ; Aβ aggregates 10 μM, FIG. 4C)	size distribution of Aβ aggregated species, aggregation inhibition (Aβ42)	LMW and HMW Aβ aggregates, dissolution samples (Aβ42)	IC50 (Aβ fibrils) [nM]	inhibition of Aβ aggregation (Aβ fibrils; 0.1 molar ratio) [%]	inhibition of Aβ aggregation (Aβ fibrils; 0.2 molar ratio) [%]	inhibition of Aβ aggregation (Aβ fibrils; 0.5 molar ratio) [%]	inhibition of Aβ aggregation (Aβ fibrils; 1 molar ratio) [%]	inhibition of Aβ aggregation (Aβ fibrils; 2 molar ratio) [%]	inhibition of the formation of Aβ fibrils (Aβ fibrils) [%]	formation of Aβ aggregates in the presence of Cu (II) [1]
O=C1c2cccc3c(N(Cc4ccccn4)Cc4ccccn4)ccc(c23)C(=O)N1CCc1ccc(O)c(O)c1 [M3, 6-(bis(pyridin-2-ylmethyl)amino)-2-(3,4-dihydroxyphenethyl)-1H-benzo[de]isoquinoline-1,3(2H)-dione]	minimal Aβ fibrils and mostly small amorphous clumps	amorphous structures	amorphous clumps	reduction of different Aβ species	effectively inhibited the formation of LMW and HMW Aβ aggregates	1000	37	42	55	74	90	94	reduced the formation of aggregates
CN(C)c1ccc2c3c(cccc13)C(=O)N(CCc1ccc(O)c(O)c1)C2=O [M1, 2-(3,4-dihydroxyphenethyl)-6-(dimethylamino)-1H-benzo[de]isoquinoline-1,3(2H)-dione]	–	amorphous structures	–	reduction of different Aβ species	effectively inhibited the formation of LMW and HMW Aβ aggregates	–	–	–	–	–	–	~95	reduced the formation of aggregates
